How the values were obtained:
Assay in all cases: viability relative to DMSO control (fraction); higher = less drug effect (more viable cells)
Conditions in all cases: 48 h
ERK5-IN-1 = compound: CCOc1cc(C(=O)N2CCC(N3CCN(C)CC3)CC2)ccc1Nc1ncc2c(n1)N(C1CCCC1)c1ccccc1C(=O)N2C [ERK5-IN-1]
In short: (§1)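 Cells were incubated for 48 h at 37 °C and 5% CO2 in RPMI-1640 with penicillin/streptomycin, L-glutamine and human serum, at 4 × 10^4 cells per well in 384-well plates with compounds pre-plated at five concentrations, one well each. These were primary mononuclear tumour cells, fresh or cryopreserved, Ficoll-isolated from blood or bone marrow or obtained from processed lymph node. Viability values are CellTiter-Glo luminescence relative to the median of 16 inner DMSO wells.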

Idarubicin = compound: CC(=O)[C@]1(O)Cc2c(O)c3c(c(O)c2[C@@H](O[C@H]2C[C@H](N)[C@H](O)[C@H](C)O2)C1)C(=O)c1ccccc1C3=O [Idarubicin]
In short: as §1

Birinapant = compound: CC[C@H](NC(=O)[C@H](C)NC)C(=O)N1C[C@@H](O)C[C@H]1Cc1c(-c2[nH]c3cc(F)ccc3c2C[C@@H]2C[C@H](O)CN2C(=O)[C@H](CC)NC(=O)[C@H](C)NC)[nH]c2cc(F)ccc12 [Birinapant]
In short: as §1

Vincristine = compound: CC[C@]1(O)C[C@H]2CN(CCc3c([nH]c4ccccc34)[C@@](C(=O)OC)(c3cc4c(cc3OC)N(C=O)[C@H]3[C@@](O)(C(=O)OC)[C@H](OC(C)=O)[C@]5(CC)C=CCN6CC[C@]43[C@@H]65)C2)C1 [Vincristine]
In short: as §1

Obatoclax mesylate = compound: COC1=CC(c2cc3ccccc3[nH]2)=N/C1=C\c1[nH]c(C)cc1C [Obatoclax mesylate]
In short: as §1

TMP269 = compound: O=C(NCC1(c2nc(-c3ccccc3)cs2)CCOCC1)c1cccc(-c2noc(C(F)(F)F)n2)c1 [TMP269]
In short: as §1

Quizartinib = compound: CC(C)(C)c1cc(NC(=O)Nc2ccc(-c3cn4c(n3)sc3cc(OCCN5CCOCC5)ccc34)cc2)no1 [Quizartinib]
In short: as §1

[1] = compound: CC(C)(C)OC(=O)Nc1ccc(-c2cc(C(=O)NCCCCCCC(=O)NO)no2)cc1
In short: as §1

ONO-4059 = compound: CC#CC(=O)N1CC[C@@H](n2c(=O)n(-c3ccc(Oc4ccccc4)cc3)c3c(N)ncnc32)C1 [ONO-4059]
In short: as §1

Imatinib = compound: Cc1ccc(NC(=O)c2ccc(CN3CCN(C)CC3)cc2)cc1Nc1nccc(-c2cccnc2)n1 [Imatinib]
In short: as §1

Cladribine = compound: Nc1nc(Cl)nc2c1ncn2[C@H]1C[C@H](O)[C@@H](CO)O1 [Cladribine]
In short: as §1

Rigosertib = compound: COc1cc(OC)c(/C=C/S(=O)(=O)Cc2ccc(OC)c(NCC(=O)O)c2)c(OC)c1 [Rigosertib]
In short: as §1

Tozasertib = compound: Cc1cc(Nc2cc(N3CCN(C)CC3)nc(Sc3ccc(NC(=O)C4CC4)cc3)n2)n[nH]1 [Tozasertib]
In short: as §1

Carfilzomib = compound: CC(C)C[C@H](NC(=O)[C@H](CCc1ccccc1)NC(=O)CN1CCOCC1)C(=O)N[C@@H](Cc1ccccc1)C(=O)N[C@@H](CC(C)C)C(=O)[C@@]1(C)CO1 [Carfilzomib]
In short: as §1

## primary BL patient cells (S005)
ERK5-IN-1; 0.024 µM
  viability: 1.07
ERK5-IN-1; 0.12 µM
  viability: 1.09
ERK5-IN-1; 0.6 µM
  viability: 1
ERK5-IN-1; 3 µM
  viability: 0.89
ERK5-IN-1; 15 µM
  viability: 0.631
Idarubicin; 0.024 µM
  viability: 1.08
Idarubicin; 0.12 µM
  viability: 1.45
Idarubicin; 0.6 µM
  viability: 1.16
Idarubicin; 3 µM
  viability: 0.541
Idarubicin; 15 µM
  viability: 0.665
Birinapant; 0.0008 µM
  viability: 1.07
Birinapant; 0.004 µM
  viability: 0.726
Birinapant; 0.02 µM
  viability: 0.672
Birinapant; 0.1 µM
  viability: 1.14
Birinapant; 0.5 µM
  viability: 0.631
Vincristine; 0.016 µM
  viability: 1.08
Vincristine; 0.08 µM
  viability: 0.912
Vincristine; 0.4 µM
  viability: 1.11
Vincristine; 2 µM
  viability: 0.811
Vincristine; 10 µM
  viability: 1.08
Obatoclax mesylate; 0.024 µM
  viability: 0.895
Obatoclax mesylate; 0.12 µM
  viability: 0.821
Obatoclax mesylate; 0.6 µM
  viability: 0.589
Obatoclax mesylate; 3 µM
  viability: 0.465
Obatoclax mesylate; 15 µM
  viability: 0.209
TMP269; 0.024 µM
  viability: 1.11
TMP269; 0.12 µM
  viability: 1.08
TMP269; 0.6 µM
  viability: 1.12
TMP269; 3 µM
  viability: 1.08
TMP269; 15 µM
  viability: 1
Quizartinib; 0.016 µM
  viability: 1.01
Quizartinib; 0.08 µM
  viability: 1.1
Quizartinib; 0.4 µM
  viability: 1.07
Quizartinib; 2 µM
  viability: 1.11
Quizartinib; 10 µM
  viability: 0.966
[1]; 0.024 µM
  viability: 1.06
[1]; 0.12 µM
  viability: 0.802
[1]; 0.6 µM
  viability: 0.738
[1]; 3 µM
  viability: 0.591
[1]; 15 µM
  viability: 0.382
ONO-4059; 0.0016 µM
  viability: 1.07
ONO-4059; 0.008 µM
  viability: 1.12
ONO-4059; 0.04 µM
  viability: 1.06
ONO-4059; 0.2 µM
  viability: 1.15
ONO-4059; 1 µM
  viability: 1.07
Imatinib; 0.016 µM
  viability: 1.02
Imatinib; 0.08 µM
  viability: 0.924
Imatinib; 0.4 µM
  viability: 0.982
Imatinib; 2 µM
  viability: 0.905
Imatinib; 10 µM
  viability: 0.867
Cladribine; 0.024 µM
  viability: 0.965
Cladribine; 0.12 µM
  viability: 1.08
Cladribine; 0.6 µM
  viability: 0.933
Cladribine; 3 µM
  viability: 0.912
Cladribine; 15 µM
  viability: 0.83
Rigosertib; 0.008 µM
  viability: 0.955
Rigosertib; 0.04 µM
  viability: 0.94
Rigosertib; 0.2 µM
  viability: 0.95
Rigosertib; 1 µM
  viability: 0.89
Rigosertib; 5 µM
  viability: 0.906
Tozasertib; 0.024 µM
  viability: 0.826
Tozasertib; 0.12 µM
  viability: 1.33
Tozasertib; 0.6 µM
  viability: 0.802
Tozasertib; 3 µM
  viability: 1.17
Tozasertib; 15 µM
  viability: 0.568
Carfilzomib; 0.00016 µM
  viability: 1.54
Carfilzomib; 0.0008 µM
  viability: 0.957
Carfilzomib; 0.004 µM
  viability: 1
Carfilzomib; 0.02 µM
  viability: 0.357
Carfilzomib; 0.1 µM
  viability: 0.284

## primary MCL patient cells (S063)
ERK5-IN-1; 0.024 µM
  viability: 1.04
ERK5-IN-1; 0.12 µM
  viability: 0.967
ERK5-IN-1; 0.6 µM
  viability: 1
ERK5-IN-1; 3 µM
  viability: 0.702
ERK5-IN-1; 15 µM
  viability: 0.279
Idarubicin; 0.024 µM
  viability: 1.11
Idarubicin; 0.12 µM
  viability: 0.475
Idarubicin; 0.6 µM
  viability: 0.0231
Idarubicin; 3 µM
  viability: 0.0118
Idarubicin; 15 µM
  viability: 0.0146
Birinapant; 0.0008 µM
  viability: 1.02
Birinapant; 0.004 µM
  viability: 1.1
Birinapant; 0.02 µM
  viability: 1.21
Birinapant; 0.1 µM
  viability: 1.23
Birinapant; 0.5 µM
  viability: 1.29
Vincristine; 0.016 µM
  viability: 0.533
Vincristine; 0.08 µM
  viability: 0.17
Vincristine; 0.4 µM
  viability: 0.134
Vincristine; 2 µM
  viability: 0.139
Vincristine; 10 µM
  viability: 0.0969
Obatoclax mesylate; 0.024 µM
  viability: 1.11
Obatoclax mesylate; 0.12 µM
  viability: 1.09
Obatoclax mesylate; 0.6 µM
  viability: 0.954
Obatoclax mesylate; 3 µM
  viability: 0.778
Obatoclax mesylate; 15 µM
  viability: 0.159
TMP269; 0.024 µM
  viability: 0.982
TMP269; 0.12 µM
  viability: 1.01
TMP269; 0.6 µM
  viability: 1.1
TMP269; 3 µM
  viability: 1.03
TMP269; 15 µM
  viability: 1
Quizartinib; 0.016 µM
  viability: 1.12
Quizartinib; 0.08 µM
  viability: 1.17
Quizartinib; 0.4 µM
  viability: 1.07
Quizartinib; 2 µM
  viability: 1.17
Quizartinib; 10 µM
  viability: 1.13
[1]; 0.024 µM
  viability: 1.05
[1]; 0.12 µM
  viability: 1
[1]; 0.6 µM
  viability: 0.859
[1]; 3 µM
  viability: 0.24
[1]; 15 µM
  viability: 0.0207
ONO-4059; 0.0016 µM
  viability: 0.777
ONO-4059; 0.008 µM
  viability: 0.321
ONO-4059; 0.04 µM
  viability: 0.254
ONO-4059; 0.2 µM
  viability: 0.237
ONO-4059; 1 µM
  viability: 0.267
Imatinib; 0.08 µM
  viability: 1.17
Imatinib; 0.4 µM
  viability: 1.18
Imatinib; 2 µM
  viability: 1.07
Imatinib; 10 µM
  viability: 0.952
Cladribine; 0.024 µM
  viability: 0.931
Cladribine; 0.12 µM
  viability: 0.645
Cladribine; 0.6 µM
  viability: 0.272
Cladribine; 3 µM
  viability: 0.129
Cladribine; 15 µM
  viability: 0.0794
Rigosertib; 0.008 µM
  viability: 0.919
Rigosertib; 0.04 µM
  viability: 1.06
Rigosertib; 0.2 µM
  viability: 0.885
Rigosertib; 1 µM
  viability: 0.969
Rigosertib; 5 µM
  viability: 0.521
Tozasertib; 0.024 µM
  viability: 0.965
Tozasertib; 0.12 µM
  viability: 0.896
Tozasertib; 0.6 µM
  viability: 0.914
Tozasertib; 3 µM
  viability: 0.753
Tozasertib; 15 µM
  viability: 0.371
Carfilzomib; 0.00016 µM
  viability: 0.87
Carfilzomib; 0.0008 µM
  viability: 0.212
Carfilzomib; 0.004 µM
  viability: 0.0158
Carfilzomib; 0.02 µM
  viability: 0.0147
Carfilzomib; 0.1 µM
  viability: 0.0203

Source: the supplement of paper PMC10733146
